# Article PMC4399250, “Characterization of HIV-1 entry inhibitors with broad activity against R5 and X4 viral strains” (Journal of Translational Medicine, 2015)
# pIC50: −log10 of the molar value. Where two headings read alike, the source gives them in different places.
# Assays:
# HIV-1 IIIB (X4) [1] = assay: HIV-1 acute infection of PHA-activated PBMC, p24 ELISA, IIIB strain; assay type: cell-based; conditions: for effect on X4 HIV-1 replication (in words): p24 day 7, concentrations tested up to 30 μM for the six compounds
# HIV-1 IIIB (X4) [2] = assay type: cell-based
# HIV-1 BaL (R5) [3] = assay: HIV-1 acute infection of PHA-activated PBMC, p24 ELISA, BaL strain; assay type: cell-based; conditions: for effect on R5 HIV-1 replication (in words): p24 day 7, concentrations tested up to 30 μM for the six compounds
# CXCR4 = CXCR4 (Homo sapiens, UniProt P61073); assay: Flow cytometry competition with anti CXCR4 moAbs; assay type: binding; conditions: PM1 cells; ND-4043 30, 10, 3 μM; AMD3100 3, 0.3, 0.03 μM
# HIV-1 BaL (R5) [4] = assay: HIV-1 fusion assay, PM1-BaL donor and TZM-bl target cells; assay type: cell-based; conditions: PM1-BaL donor, TZM-bl target, 2.5% FCS
# PBMC = assay: MTT cytotoxicity assay on PBMC; assay type: cell-based, human; conditions: infected PBMC
# Description: PBMC and TZM-bl viability was measured by the MTT [3-(4,5- dimethylthiazol-2-yl)-2,5-diphenyl tetrazolium bromide; Sigma] assay. Cells were seeded in 96-well plates in three replicates and were incubated for four (TZM-bl) or six (PBMC) days with different concentrations of the compounds or DMSO alone at 0.2% as control. Then 10μl of complete medium containing MTT (0.5 mg/ml) was added to each well. After 24h incubation at 37°C, the supernatant was removed and 200μl of ethanol was added to each well to solubilize the formazan crystals. After vigorous shaking, absorbance was measured in a microplate reader at 490 nm.
# influenza A virus = assay: Influenza virus-like particle entry assay in MDCK cells; assay type: cell-based; conditions: three concentrations, bafilomycin 100 nM
# [5] = IIIB (X4), infected PBMC, p24 day 7
# [6] = BaL (R5), infected PBMC, p24 day 7
# Chain of CXCR4 (P61073 whole entry, the tested form may be a part): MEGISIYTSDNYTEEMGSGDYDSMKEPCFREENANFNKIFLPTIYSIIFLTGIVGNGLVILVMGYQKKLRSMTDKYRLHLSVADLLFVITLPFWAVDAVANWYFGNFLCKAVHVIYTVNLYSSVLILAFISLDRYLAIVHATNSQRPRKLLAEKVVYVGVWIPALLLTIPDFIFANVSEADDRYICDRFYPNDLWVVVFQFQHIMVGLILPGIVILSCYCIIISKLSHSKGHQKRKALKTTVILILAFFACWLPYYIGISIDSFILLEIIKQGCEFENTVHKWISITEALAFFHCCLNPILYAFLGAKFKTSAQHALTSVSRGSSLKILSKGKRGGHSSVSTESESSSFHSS
molecule,measurement,setting,value
c1cc(CN2CCCNCCNCCCNCC2)ccc1CN1CCCNCCNCCCNCC1 [AMD3100],concentration inhibiting X4 HIV-1 replication,"HIV-1 IIIB (X4) [1]; PBMC, p24 day 7, ten fold dilutions, complete inhibition for AMD3100",0.01 µM
same,activity relative to ND-4043 on X4 inhibition,HIV-1 IIIB (X4) [1]; side-by-side comparison,approximately 100 fold
same,effect on X4-mediated fusion (in words),HIV-1 IIIB (X4) [2],selectively blocked entry
same,effect on R5 HIV-1 replication (in words),HIV-1 BaL (R5) [3]; PBMC,no effect
same,effect on binding of four anti-CXCR4 moAbs,CXCR4,inhibited binding of the four moAbs in a concentration-dependent manner
"Cn1cc(NC(=O)c2cc(NC(=O)c3cc(NC=O)cn3C)cn2C)cc1C(=O)NCCC(=N)N [compound 4044, distamycin]",pIC50,HIV-1 IIIB (X4) [1]; [5],< 4.52
same,IC75,HIV-1 IIIB (X4) [1]; [5],>30 µM
same,IC90,HIV-1 IIIB (X4) [1]; [5],> 30 µM
same,effect on X4 HIV-1 replication (in words),HIV-1 IIIB (X4) [1]; PBMC,not effective
same,effect on X4-mediated fusion (in words),"HIV-1 IIIB (X4) [2]; SupT1-IIIB donor, TZM-bl target, 2.5% FCS",did not affect
same,pIC50,HIV-1 BaL (R5) [3]; [6],< 4.52
same,IC75,HIV-1 BaL (R5) [3]; [6],>30 µM
same,IC90,HIV-1 BaL (R5) [3]; [6],> 30 µM
same,effect on R5 HIV-1 replication (in words),HIV-1 BaL (R5) [3]; PBMC,not effective
same,effect on R5-mediated fusion (in words),HIV-1 BaL (R5) [4],did not affect
same,CC50,PBMC; table section BaL (R5),25 µM
same,CC50,PBMC; table section IIIB (X4),30 µM
Maraviroc,effect on X4 HIV-1 replication (in words),HIV-1 IIIB (X4) [1]; PBMC,no effect
same,concentration inhibiting R5 HIV-1 replication,"HIV-1 BaL (R5) [3]; PBMC, p24 day 7, ten fold dilutions, complete blockade for maraviroc",0.1 µM
same,activity relative to ND-4043 on R5 inhibition,HIV-1 BaL (R5) [3]; side-by-side comparison,approximately 100 fold
same,effect on R5-mediated fusion (in words),HIV-1 BaL (R5) [4],selectively blocked entry
CO/C1=C\C(C)=C\[C@@H](C)[C@@H](O)[C@@H](C)C/C(C)=C/C=C/[C@H](OC)[C@@H]([C@@H](C)[C@@H](O)[C@H](C)[C@@]2(O)C[C@@H](O)[C@H](C)[C@@H](C(C)C)O2)OC1=O [bafilomycin A1],effect on influenza A virus entry,influenza A virus,inhibited viral entry significantly
